In patent US20190175646A1, “METHODS AND COMPOSITIONS RELATING TO THE TREATMENT OF BENIGN SKIN TUMORS” (THE GENERAL HOSPITAL CORPORATION D/B/A MASSACHUSETTS …, priority 2015, published 2019):

Test system: SK cells
Assay: SK cell viability (Alamar blue absorbance assay)
Type: cell-based, human
Conditions: indicated concentrations, 48 hours
Description: FIG. 1 depicts a graph in which SK cells were treated with DSF and CuCl2 (indicated concentrations) for 48 hours and relative cellular viability was measured using Alamar blue (absorbance based) assay. A443654 Akt inhibitor was used as a control.
FIG. 2 depicts a graph in which SK cells and normal human keratinocytes were treated with DSF and CuCl2 (indicated concentrations) for 48 hours and relative cellular viability was measured using Alamar blue (absorbance based) assay. A443654 Akt inhibitor was used as a control.
FIG. 4 depicts a graph of SK cell viability after treatment with DSF and/or Cu^2+. A443654 Akt inhibitor was used as a control.
FIG. 5 depicts a graph of SK cell viability after treatment with DSF and/or Zn^2+. A443654 Akt inhibitor was used as a control.
FIGS. 8 and 9 depict graphs of SK cell viability after treatment with pyrithione and/or Cu^2+. A443654 Akt inhibitor was used as a control. Cells from different donors were used for each experiment

COc1ccc(C2=N[C@@H](c3ccc(Cl)cc3)[C@@H](c3ccc(Cl)cc3)N2C(=O)N2CCNC(=O)C2)c(OC(C)C)c1 [nutlin-3a]
effect on SK cell viability: impair SK viability
